{
  "source": "patent US20140343145A1",
  "about": "“RBP1 as a Molecular Biomarker for Predicting Survival and Response to Treatment in Glioma” (The Regents of the University of California, priority 2011, published 2014)",
  "key": {"[1]": {"system": "patients with primary glioblastoma", "assay": "Kaplan-Meier analysis of overall survival in a preliminary cohort of 414 primary glioblastoma patients, with or without upfront isotretinoin", "format": "in vivo, human", "protocol": "Survival for an unpublished preliminary cohort of 414 patients with primary glioblastoma were analyzed with Kaplan-Meier analysis. Survival curves for patients with wild-type or IDH1/2 mutant genotypes with or without upfront treatment with isotretinoin, in combination with standard-of-care debulking surgery, temozolomide, and radiation therapy, are shown. […] WT=wild-type, MUT=IDH1 MUT, ITR=isotretinoin (13-cis retinoic acid).\nSpecifically, the median overall survival for IDH1 mutant glioblastoma patients treated with isotretinoin was 81 months as compared with 36 months for similar IDH1 mutant glioblastoma patients who were not treated with isotretinoin. […] Therefore, in some embodiments, the present invention is directed to methods of treating IDH1/IDH2 mutant gliomas in subjects, which comprise administering to the subjects having been diagnosed with an IDH1 and/or an IDH2 mutation and/or RBP1 promoter hypermethylation one or more retinoids."}, "[2]": {"system": "unselected glioma patients", "conditions": "patients not selected for any biomarker/mutation (Yung 1996); cited from earlier work"}, "[3]": {"system": "primary glioblastoma multiforme patients", "assay": "Kaplan-Meier analysis of overall survival in the GBM Survival Cohort (124 primary glioblastoma patients) by RBP1 methylation and isotretinoin treatment", "format": "in vivo, human", "text": "FIGS. 10A-10B show the Kaplan-Meier analysis of overall survival (OS) in a cohort of 124 primary glioblastoma mulitforme patients with respect to RBP1 methylation and isotretinoin (ITR) treatment. FIG. 10A provides RBP1-unmethylated patients treated (solid, n=19) vs untreated with isotretinoin (dotted, n=83). FIG. 10B provides RBP1-methylated patients treated (solid, n=7) and untreated with isotretinoin (dotted, n=15). RBP1=retinol binding protein 1; WT=wild-type; MUT=mutant; ITR=isotretinoin.\nWithin the 198-patient Total Cohort, 124 samples that were obtained from treatment-naïve primary GBM patients with detailed clinical information were retrospectively identified. Patients were treated with a combination of radiation (RT) and temozolomide (TMZ) after surgical resection (Stupp R, et al. N Engl J Med 2005; 352(10):987-96). Overall survival (OS) was defined as the date of diagnosis to date of death from any cause. For patients lost to follow-up without obtainable date of death, censoring date was last clinic visit or contact. If the last clinic or contact was after the Sep. 9, 2011 freeze date, the patient was censored at […]. […]\nCorrelation between IDH1 mutation and RBP1 methylation was determined using the Spearman correlation test. […]"}},
  "note": "“Also recorded” adds a separate entry of the source.",
  "data": [
    {"compound": "CC1=C(/C=C/C(C)=C/C=C/C(C)=C\\C(=O)O)C(C)(C)CCC1", "note": "[isotretinoin, 13-cis retinoic acid]", "values": [
      {"measurement": "median overall survival", "setting": "[1]; IDH1 mutant glioblastoma patients treated with isotretinoin, 36 months for similar patients not treated", "result": 81, "unit": "months"},
      {"measurement": "effect on overall survival, IDH1/IDH2 mutant glioblastoma", "setting": "[1]; upfront isotretinoin with standard-of-care debulking surgery, temozolomide and radiation, patients with IDH1 or IDH2 mutant glioblastoma", "result": "significantly improve the overall survival; also recorded: significantly increased overall survival"},
      {"measurement": "effect on overall survival, wild-type tumors", "setting": "[1]; upfront isotretinoin with standard-of-care debulking surgery, temozolomide and radiation, patients with wild-type tumors (WT)", "result": "only modest increase in overall survival"},
      {"measurement": "efficacy in unselected glioma patients", "setting": "[2]", "result": "little to only modest efficacy"},
      {"measurement": "median OS (overall survival)", "setting": "[3]; RBP1-methylated primary GBM patients who received isotretinoin (n=7), untreated 36.7 months, P=0.53", "result": 82.5, "unit": "months"},
      {"measurement": "median OS (overall survival)", "setting": "[3]; RBP1-unmethylated primary GBM patients who received adjuvant isotretinoin with temozolomide (n=19), untreated 19.8 months, P=0.25", "result": 22.0, "unit": "months"}
    ]}
  ]
}
